We go through 42 compounds from patent US8058243B2, “Method for treating a brain cancer with ifenprodil” (HSC Research and Development Limited Partnership, priority 2006, dated 2011).

The test concerns murine neural precursor cells (neurosphere cultures). As to the kind of experiment: HTS of LOPAC library against secondary neurosphere cultures, MTT proliferation assay at 3 μM, day 7 (z score, P value). In kind it is cell-based, mouse. Background: Tetrazolium dyes change colour on reduction, which living cells bring about.
The mark [1] stands for this setting: yes/no: significantly inhibited neurosphere proliferation in the primary screen.
Where [2] appears, read: LOPAC library screen at 3 μM, secondary neurosphere cultures, MTT.
Setting [3] is: primary LOPAC screen, 3 μM, MTT, neurosphere proliferation.
The mark [4] stands for this setting: LOPAC primary screen, neurosphere MTT proliferation, 3 μM, day 7.
[5] abbreviates: yes/no: significantly inhibited neurosphere proliferation (P<0.01) in primary screen.
Where [6] appears, read: yes = significantly inhibited neurosphere proliferation (P<0.01) in the primary screen.
The mark [7] stands for this setting: LOPAC screen, neurosphere MTT proliferation, 3 μM, day 7.
Where [8] appears, read: LOPAC library screen, 3 μM, MTT, secondary neurosphere cultures, day 7.
Setting [9] is: yes/no: significantly inhibited neurosphere proliferation (P<0.01) in the primary screen.
The mark [10] stands for this setting: LOPAC library screen, 3 μM, MTT, neurosphere cultures.

Counter-ions that a name gives are not always drawn. Like-named read-outs stand apart in the source and are kept apart here.

As for `COc1ccccc1N1CCN(CCCNc2cc(=O)n(C)c(=O)n2C)CC1` [Urapidil hydrochloride], under “168 h, 3 µM”, the “Z Score” value stood at 0.1572 and the Z score was determined as 0.157. Further, the Activity result under setting [1] is given as “no”.

`COc1ccccc1N1CCN(CCCNc2c(C)c(=O)n(C)c(=O)n2C)CC1` [Urapidil, 5-Methyl-]: the “Z Score” value under setting [2] was −0.7831. In addition, the Z score under setting [3] is on record as −0.783. Besides, the Activity result under setting [1] was “no”.

Take `O=c1ccn([C@@H]2O[C@H](COP(=O)([O-])OP(=O)([O-])[O-])[C@@H](O)[C@H]2O)c(=O)[nH]1.[Na+].[Na+].[Na+]` [Uridine 5′-diphosphate sodium]: for the setting “168 h, 3 µM”, the “Z Score” value is listed as 0.7074 and the Z score is 0.707. In addition, the Activity result under setting [1] is recorded as “no”.

As to `C[C@H](N)CN1CCc2ccc(Br)cc21.C[C@H](N)CN1CCc2ccc(Br)cc21.O=C(O)/C=C/C(=O)O` [VER-3323 hemifumarate salt], the “Z Score” value is recorded as −0.7614. The Z score under setting [4] is reported as −0.761. The Activity entry under setting [5] is listed as “no”.

As to `COc1ccccc1NC(=O)Nc1nc(-c2cccnc2)nc2ccccc12` [VUF 5574], the “Z Score” value stood at 0.5811. Under setting [3], this compound had a Z score of 0.581. Further, the Activity result under setting [1] is “no”.

`CCCC(CCC)C(=O)O.[Na]` [Valproic acid sodium]: the “Z Score” value under setting [2] is reported as −0.09493. The Z score under setting [4] was −0.095. Also, under setting [6], the Activity result was “no”.

For the compound `CCN(CC)C(=O)c1ccc(O)c(OC)c1` [Vanillic acid diethylamide], the “Z Score” value under setting [2] is −0.5948. Moreover, under setting [7], the Z score was −0.595. Also, under setting [5], the Activity entry was “no”.

Take `CC[C@]1(O)C[C@H]2CN(CCc3c([nH]c4ccccc34)[C@@](C(=O)OC)(c3cc4c(cc3OC)N(C=O)[C@H]3[C@@](O)(C(=O)OC)[C@H](OC(C)=O)[C@]5(CC)C=CCN6CC[C@]43[C@@H]65)C2)C1` [Vincristine sulfate]: the “Z Score” value under setting [8] is −10.79. Under setting [4], the Z score is −10.792. Also, the Activity entry under setting [9] is reported as “yes”.

`CCOC(=O)C1=C[C@]2(CC)CCCN3CCc4c(n1c1ccccc41)[C@@H]32` [Vinpocetine]: the “Z Score” value under setting [10] was 0.4329. The same compound yielded a Z score under setting [3] of 0.433. Moreover, the Activity entry under setting [1] is listed as “no”.

As for `COc1ccccc1N1CCN(CCN(C(=O)C2CCCCC2)c2ccccn2)CC1.O=C(O)/C=C\C(=O)O` [WAY-100635 maleate], the “Z Score” value is listed as −0.4965. This compound also registered a Z score under setting [3] of −0.497. The Activity result under setting [1] is listed as “no”.

As for `COc1cccc(OC)c1OCCNCC1COc2ccccc2O1.Cl` (stereo not drawn) [WB-4101 hydrochloride], the “Z Score” value is recorded as −2.247. The compound also came in with a Z score under setting [7] of −2.247. Further, the Activity entry under setting [5] is on record as “no”.

In the case of `C#C[C@]1(O)CC[C@H]2[C@@H]3CCC4=Cc5nc6nc7ccccc7n6cc5C[C@]4(C)[C@H]3CC[C@@]21C` [WIN 62,577], the “Z Score” value came to 2.351. The same compound registered a Z score under setting [3] of 2.351. In addition, the Activity entry under setting [1] is listed as “no”.

On to `COC[C@H]1OC(=O)c2coc3c2[C@@]1(C)C1=C(C3=O)[C@@H]2CCC(=O)[C@@]2(C)C[C@H]1OC(C)=O` [Wortmannin from Penicillium funiculosum], for which the “Z Score” value is given as 0.4079. Besides, the Z score under setting [3] was 0.408. Also, under setting [1], the Activity entry is “no”.

Regarding `CC(Oc1ccc(Oc2cnc3ccc(Cl)cc3n2)cc1)C(=O)O` (stereo not drawn) [XK469], the Activity entry was “yes” and the “Z Score” value is −9.355. The Z score under setting [4] is reported as −9.355.

With `O=C(NCCNCC(O)COc1ccc(O)cc1)N1CCOCC1` (stereo not drawn) [Xamoterol hemifumarate], for the setting “168 h, 3 µM”, the “Z Score” value is −0.1243 and the Z score is listed as −0.124. Under setting [1], the Activity entry is recorded as “no”.

For `CCCn1c(=O)c2[nH]c(-c3ccc(OCC(=O)NCCN)cc3)nc2n(CCC)c1=O` [Xanthine amine congener], the “Z Score” value under setting [10] is 0.001164. For the same compound, under setting [3], the Z score is 0.001. Moreover, under setting [1], the Activity entry is given as “no”.

Regarding `Cc1cccc(C)c1N=C1NCCCS1` [Xylazine hydrochloride], the “Z Score” value is given as 0.3755. Also, under setting [3], the Z score was determined as 0.375. In addition, the Activity result under setting [1] was “no”.

Consider `Cc1cc(C(C)(C)C)cc(C)c1CC1=NCCN1` [Xylometazoline hydrochloride], for which the “Z Score” value is reported as 0.296. Further, under setting [3], the Z score is 0.296. Under setting [1], the Activity entry is listed as “no”.

Turning to `C[C@@H](N)[C@H]1CC[C@H](C(=O)Nc2ccncc2)CC1` [Y-27632 dihydrochloride], under “168 h, 3 µM”, the “Z Score” value is given as −0.1255 and the Z score was −0.125. The Activity result under setting [5] is “no”.

With `OCc1ccc(-c2nn(Cc3ccccc3)c3ccccc23)o1` [YC-1], the “Z Score” value stood at 0.4335. Under setting [3], the Z score is recorded as 0.433. Further, under setting [1], the Activity entry was “no”.

For the compound `COc1ccc(CCN(C)CCc2ccc(OC)c(OC)c2)cc1OC.Cl` [YS-035 hydrochloride], the “Z Score” value came out at 0.04311. The compound further yielded a Z score under setting [4] of 0.043. The Activity entry under setting [9] is “no”.

With `COC(=O)[C@@H]1[C@H]2C[C@H]3c4[nH]c5ccccc5c4CCN3C[C@@H]2CC[C@@H]1O` [Yohimbine hydrochloride], for the setting “168 h, 3 µM”, the “Z Score” value is on record as −1.656 and the Z score is on record as −1.656. For the same compound, the Activity result under setting [1] is “no”.

As to `O=C(N[C@@H](Cc1ccccc1)C(=O)CCl)OCc1ccccc1` [Z-L-Phe chloromethyl ketone], the “Z Score” value is given as −2.901. Moreover, under setting [4], the Z score is on record as −2.901. Moreover, under setting [9], the Activity entry is given as “yes”.

For the compound `CC(C)N(CCC(=O)c1ccc2ccccc2c1)Cc1ccccc1` [ZM 39923 hydrochloride], the “Z Score” value under setting [10] was 0.7457. In addition, the Z score under setting [4] is 0.746. Moreover, the Activity result under setting [6] is on record as “no”.

As to `CCCOc1ccccc1-c1nc2nn[nH]c2c(=O)[nH]1` [Zaprinast], the “Z Score” value under setting [8] is on record as −2.506. Besides, under setting [4], the Z score was −2.506. In addition, the Activity result under setting [6] is recorded as “yes”.

On to `COc1cc(-c2ccc(=O)[nH]n2)ccc1OC(F)F` [Zardaverine], for which the “Z Score” value under setting [2] is recorded as −0.3412. Moreover, the Z score under setting [3] is on record as −0.341.

Take `CN(C)C/C=C(/c1ccc(Br)cc1)c1cccnc1` [Zimelidine dihydrochloride]: the “Z Score” value under setting [2] was −0.649. For the same compound, under setting [3], the Z score was −0.649. Further, the Activity result under setting [1] is given as “no”.

Consider `NS(=O)(=O)Cc1noc2ccccc12` [Zonisamide sodium], for which, under setting [2], the “Z Score” value is −0.9169. The compound further came in with a Z score under setting [3] of −0.917. The Activity result under setting [1] is on record as “no”.

Consider `N=C(N)NC(CCC(=O)O)C(=O)O` (stereo not drawn) [alpha-Guanidinoglutaric acid], for which, where the note is “168 h, 3 µM”, the “Z Score” value is recorded as −9.041 and the Z score was −9.041. The Activity result under setting [9] is given as “yes”.

Consider `CN1[C@@H](CC(=O)c2ccccc2)CCC[C@H]1C[C@H](O)c1ccccc1` [alpha-Lobeline hydrochloride], for which the “Z Score” value under setting [10] worked out at 0.5499. In addition, the Z score under setting [4] came to 0.550. Further, the Activity result under setting [5] is “no”.

Regarding `CC(N)Cc1c[nH]c2ccc(O)cc12.O=C(O)/C=C\C(=O)O` (stereo not drawn) [alpha-Methyl-5-hydroxytryptamine maleate], the “Z Score” value was −0.7796. Under setting [4], this compound yielded a Z score of −0.780. Besides, under setting [6], the Activity result is “no”.

Consider `Cl.N[C@@H](CCl)C(=O)O` [beta-Chloro-L-alanine hydrochloride], for which the “Z Score” value is recorded as −1.39. The Z score under setting [7] is −1.390. Under setting [5], the Activity entry is recorded as “no”.

In the case of `C[C@]12CC[C@@H]3c4ccc(O)cc4CC[C@H]3[C@@H]1CC[C@@H]2O` [beta-Estradiol], the “Z Score” value was −0.5623. For the same compound, the Z score under setting [4] is on record as −0.562. The Activity result under setting [5] is on record as “no”.

Regarding `CC1(C)CCC2=C(O1)c1ccccc1C(=O)C2=O` [beta-Lapachone], for the setting “168 h, 3 µM”, the “Z Score” value was −10.43 and the Z score is on record as −10.428. In addition, the Activity entry under setting [6] is recorded as “yes”.

Turning to `NC/C=C\C(=O)O` [cis-4-Aminocrotonic acid], the “Z Score” value under setting [2] was −1.088. The compound also showed a Z score under setting [3] of −1.088. Further, the Activity entry under setting [1] is “no”.

With `Br.CCCN1CCC[C@@H]2c3ccc(O)cc3CC[C@@H]21` [cis-(B1)-8-OH-PBZI hydrobromide], the “Z Score” value is −2.297.

On to `O=C(O)[C@@H]1C[C@H](C(=O)O)N1` [cis-Azetidine-2,4-dicarboxylic acid], for which, under “168 h, 3 µM”, the “Z Score” value is reported as −2.251 and the Z score is recorded as −2.251. Further, the Activity result under setting [1] is given as “no”.

In the case of `C#CC(N)CCC(=O)O` (stereo not drawn) [gamma-Acetylinic GABA], the “Z Score” value is given as 1.285. This compound gave a Z score under setting [3] of 1.285. Also, under setting [1], the Activity result is “no”.

In the case of `N[C@H](CCC(=O)NCS(=O)(=O)O)C(=O)O` [gamma-D-Glutamylaminomethylsulfonic acid], under setting [10], the “Z Score” value is −0.04649. For the same compound, under setting [4], the Z score is listed as −0.046. Further, under setting [5], the Activity entry is given as “no”.

Turning to `CC(C(=O)O)c1ccc(CC2CCCC2=O)cc1` (stereo not drawn) [loxoprofen], the “Z Score” value under setting [2] was −0.8833. In addition, the Z score under setting [4] was −0.883. For the same compound, under setting [5], the Activity result is recorded as “no”.

`Oc1ccc2c3c1O[C@H]1c4[nH]c5c(c4C[C@@]4(O)[C@@H](C2)N(CC2CC2)CC[C@]314)C[C@@]1(O)[C@H]2Cc3ccc(O)c4c3[C@@]1(CCN2CC1CC1)[C@H]5O4` [nor-Binaltorphimine dihydrochloride]: the “Z Score” value was 0.3881. In addition, the Z score under setting [4] worked out at 0.388. Moreover, under setting [6], the Activity entry was “no”.

Regarding `Cl.Nc1cc(Cl)c(N=C2NCCN2)c(Cl)c1` [p-Aminoclonidine hydrochloride], the “Z Score” value was −0.04776. Besides, the Z score under setting [4] is on record as −0.048. The Activity entry (yes/no: significantly inhibited neurosphere proliferation in primary screen) is listed as “no”.
